Results on six compounds are retold here after patent publication US10889553B2, “Asymmetric triazole benzamide derivatives and the compositions and methods of treatment regarding the same” (NysnoBio Ireland DAC, priority 2017, dated 2021).

The nature of data set [1]: Microsomal stability assay, human liver microsomes. The format is in vitro ADME. The note with it: pH 7.4; human liver microsomes 1.0 mg/mL, 1 μM compound, NADPH; read-out: HLM t1/2. As to the method: (§1) Compounds were also tested for metabolic stability in both rat liver microsomes (RLM) and the compounds are tested for human liver microsomes (HLM) and their half-life is calculated (See Tables 5A and 5B). The assay was performed as follows. The total volume for each incubation was 250 μL. A 100 μM DMSO solution of compound (diluted from 10 mM stock solution) was spiked into 50 mM KH2PO4 (pH 7.4) buffer containing liver microsome at a concentration of 1.0 mg/mL. The reaction was initiated by the addition of 50 μL of 1 mM NADPH. The final concentration of each compound was 1 μM (1% DMSO). The positive controls, phenacetin for CYP1A2, diclofenac for CYP2C9, omeprazole for CYP2C19, dextromethorphan for CYP2D6 and midazolam for CYP3A4 were added to a separate tube with the final substrate concentrations of 1 μM (1% DMSO) for evaluating the enzyme activities in the liver microsomes. At 0, 15, 30 and 60 min, an aliquot of 15 μL reaction mixtures were removed and 200 μL of methanol (with internal standard of 25 ng/mL propranolol) was added to quench the reaction. The resulting mixture was centrifuged and supernatant was used for LC-MS/MS analysis.
(§2) The signals for each compound, or the metabolites for the probe substrates and the internal standard were integrated and the peak area ratios to internal standard were generated. Percent parent remaining at a specified timepoint was calculated based on the peak area ratios at time 0 (as 100%) for in vitro metabolic stability studies in liver microsome and hepatocyte. The observed rate constant (kobs) for the metabolism of substrates was calculated by plotting the natural log of percentage substrate remaining versus time of incubation with the slope being kobs. The half-life (T1/2) was calculated according to the following equation: T1/2=[…]

A short description of data set [2]: Microsomal stability assay, rat liver microsomes. The format is in vitro ADME. The note with it: pH 7.4; rat liver microsomes 1.0 mg/mL, 1 μM compound, NADPH; read-out: RLM t1/2. As to the method: as §1, §2
For the next data set, the system named is HCT-116 (colon). The experiment in a line: Cancer cell proliferation assay (acid phosphatase). The format is cell-based. The note with it: Homo sapiens. In a few lines:
(§3)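 Growth inhibition is expressed as a percentage of DMSO-treated control cells, using absorbance at 405 nm corrected at 620 nm after acid phosphatase conversion of p-nitrophenol phosphate. Compound exposure lasts 72 hrs at 37° C. following overnight attachment.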

For another data set, the system named is TOV-112D (ovarian). The experiment in a line: Cancer cell proliferation assay (acid phosphatase). The format is cell-based. The note with it: Homo sapiens, TOV112D. The procedure, abridged: as §3
In the next data set the test system is JEKO-1 (lymophoma). Put plainly: Cancer cell proliferation assay (acid phosphatase). Format: cell-based. The note with it: Homo sapiens. In a few lines:
as §3

A further data set relates to Ovarian (OAW42). Put plainly: Cancer cell proliferation assay (acid phosphatase). The format is cell-based. To be noted: Homo sapiens, OAW-42; Table 6E. The procedure, abridged:
as §3

For another data set, the system named is Ovarian (A2780). The experiment in a line: Cancer cell proliferation assay (acid phosphatase). Format: cell-based. To be noted: Homo sapiens, Table 6E. The procedure, abridged:
as §3

The test system of a further data set is TOV-21G (ovarian). The experiment in a line: Cancer cell proliferation assay (acid phosphatase). The format is cell-based. To be noted: Homo sapiens, TOV21G; Table 6E; read-out: Proliferation IC50 (nM) Ovarian TOV21G. The procedure, abridged:
as §3

For a further data set, the system named is Mantle Cell Mino. Put plainly: Cancer cell proliferation assay (acid phosphatase). Format: cell-based. To be noted: Homo sapiens, Table 6E. In a few lines: as §3
Where [3] appears, read: HCT-116, 72 h, Table 6A, 72 hrs, read-out: HCT-116 IC50.
The mark [4] stands for this setting: Table 6B, 72 hrs, read-out: TOV-112D IC50.
The mark [5] stands for this setting: Table 6B, 72 hrs, read-out: JEKO-1 IC50.

SMILES strings stand for the structures. Where two headings read alike, the source gives them in different places.

On to `Cc1ccccc1C(=O)Nc1nc(-c2ccccc2O)nn1-c1ccc(Cl)cc1` [Compound 155], for which the half-life at 1 μM in data set [1] came to 1.06 h; in [2], 0.29 h. The IC50 turned out to be 240 nM with HCT-116 (colon) (setting [3]), 40 nM with TOV-112D (ovarian) (setting [4]) and 40 nM with JEKO-1 (lymophoma) (setting [5]).

As to `Cc1ccccc1C(=O)Nc1nc(-c2ccccc2O)nn1-c1ccc(C(F)(F)F)cc1` [Compound 156], the half-life at 1 μM in [1] was found to be 2.63 h; in data set [2], 0.395 h. In addition, the IC50 is 240 nM in the data set on HCT-116 (colon) (setting [3]), 40 nM in the data set on TOV-112D (ovarian) (setting [4]) and 80 nM in the data set on JEKO-1 (lymophoma) (setting [5]).

In the case of `Cc1ccccc1C(=O)Nc1nc(-c2ccccc2O)nn1-c1cccc(F)c1` [Compound 157], the half-life at 1 μM is 0.7 h in data set [1] and 0.275 h in [2]. The IC50 was determined as 350 nM in the data set with HCT-116 (colon) (setting [3]), 120 nM in the data set on TOV-112D (ovarian) (setting [4]) and 80 nM in the data set on JEKO-1 (lymophoma) (setting [5]).

Turning to `Cc1ccccc1C(=O)Nc1nc(-c2cc(Cl)ccc2O)nn1-c1ccc(OC(F)(F)F)cc1` [Compound 158], the half-life at 1 μM in [1] came out at 2.75 h; in data set [2] it was 2.82 h. In addition, the IC50 in the data set on HCT-116 (colon) (setting [3]) stood at 240 nM; in the data set with TOV-112D (ovarian) (setting [4]), 190 nM; in the data set with JEKO-1 (lymophoma) (setting [5]), 200 nM.

As to `Cc1ccc(O)c(-c2nc(NC(=O)c3ccccc3C)n(-c3ccc(OC(F)(F)F)cc3)n2)c1` [Compound 159], the figures for the half-life at 1 μM in data set [1] and in [2] were 2.97 h and 2.63 h, respectively. Further, the IC50 in the data set with HCT-116 (colon) (setting [3]) was determined as 300 nM; with TOV-112D (ovarian) (setting [4]) it was 60 nM; in the data set with JEKO-1 (lymophoma) (setting [5]) it was 90 nM.

In the case of `Cc1ccccc1C(=O)Nc1nc(NC(=O)c2ccccc2C)n(-c2ccccc2)n1` [Compound F, 2-methyl-N-[5-[(2-methylbenzoyl)amino]-1-phenyl-1,2,4-triazol-3-yl]benzamide], the IC50 in the data set on Ovarian (OAW42) is greater than 2500 nM; in the data set on Ovarian (A2780), 1300 nM; in the data set with TOV-21G (ovarian) it was 1500 nM; in the data set with HCT-116 (colon) (HCT-116, Table 6E, read-out: Proliferation IC50 (nM) CRC HCT-116) it was 1300 nM; in the data set on TOV-112D (ovarian) (Table 6E, read-out: Proliferation IC50 (nM) Ovarian TOV112D), 850 nM; in the data set with JEKO-1 (lymophoma) (Table 6E, read-out: Proliferation IC50 (nM) Mantle Cell Jeko-1), greater than 2500 nM. In addition, the IC50 in the data set with Mantle Cell Mino was determined as 884 nM.
